Laboratory results as given in patent US5658938A, “Substituted 1H-imidazoles” (U C B S.A., priority 1994, dated 1997).
Like-named read-outs stand apart in the source and are kept apart here.

Tests used:
α-adrenergic receptors = conditions: cited from earlier work
[1] = system: presynaptic α2 -adrenergic receptors; assay: Inhibition of the contraction of the electrically stimulated guinea pig ileum (presynaptic α2-agonist activity); conditions: guinea pig ileum longitudinal muscle strips, electrical stimulation
Text: Longitudinal muscle strips attached to an isometric strain gauge are suspended in Tyrode's solution and are stretched under a tension of 1 g (G. M. Drew, Brit. J. Pharmacol. 64, (1978), 293-300; M. Andrejak et al., Naunyn-Schmiedeberg's Arch. Pharmacol. 314, (1980), 83-87).
Electrical stimulation of the parasympathetic nerves associated with the ileum fragments causes a contraction of the muscle. This contraction is reduced in the presence of a presynaptic α2 -agonist and the magnitude by which the contraction is reduced depends on the concentration of the agonist used. This effect is antagonised by the simultaneous presence of an α2 -antagonist such as alpha-yohimbine.
The IC30 concentration (in mole/l) that reduces by 30% the intensity of the contraction of the muscle is determined.

[2] = target: T1, postsynaptic α1 -adrenergic receptor (Rattus norvegicus, UniProt P23944); assay: Postsynaptic α1-antagonist activity: inhibition of norepinephrine-induced contraction of the isolated aorta of the rat; conditions: read-out: ED30 (concentration which causes 30% inhibition of the contraction induced by norepinephrine)
T1 construct: isolated aorta of the rat; from tissue; host or cells: rat isolated aorta
T1 sequence (P23944 1-561): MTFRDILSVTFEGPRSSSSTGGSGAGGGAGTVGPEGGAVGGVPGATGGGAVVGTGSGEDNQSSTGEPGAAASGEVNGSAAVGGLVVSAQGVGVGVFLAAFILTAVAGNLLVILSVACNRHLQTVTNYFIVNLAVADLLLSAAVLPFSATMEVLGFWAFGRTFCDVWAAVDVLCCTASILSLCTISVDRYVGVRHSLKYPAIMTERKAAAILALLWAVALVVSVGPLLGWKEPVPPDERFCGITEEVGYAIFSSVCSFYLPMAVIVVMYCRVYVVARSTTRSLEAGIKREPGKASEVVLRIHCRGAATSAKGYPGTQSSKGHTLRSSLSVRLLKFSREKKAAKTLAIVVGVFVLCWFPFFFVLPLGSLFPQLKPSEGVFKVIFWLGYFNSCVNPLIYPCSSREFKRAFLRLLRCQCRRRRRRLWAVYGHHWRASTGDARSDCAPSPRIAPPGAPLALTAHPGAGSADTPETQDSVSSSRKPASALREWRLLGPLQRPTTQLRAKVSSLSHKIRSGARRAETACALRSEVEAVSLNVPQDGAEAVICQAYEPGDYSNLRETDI
Experimental: A non selective α-agonist substance such as norepinephrine induces a sustained contraction of the isolated aorta of the rat (J. M. Van Rossum Arch. Int. Pharmacodyn. 143, (1963), 299-330). This contraction can be inhibited by α1 -adrenergic blocking substances such as prazosin. In this test, a control contraction is carried out with norepinephrine at 3.2×10^-8 mole/l. After washing and stabilizing the preparation, the compound to be tested is added to the bath. Norepinephrine is added 5 minutes after the compound tested, and inhibition of the contraction induced by norepinephrine is measured. Next, inhibition of the contraction induced by norepinephrine is evaluated a second and third time in the presence of increasing concentrations of the compound tested.

male NMRI mice = assay: Toxicity, Irwin's test; assay type: in vivo; conditions: intraperitoneal
Experimental: The toxicity of the compounds of the invention has been determined in male NMRI mice by means of Irwin's test (S. Irwin, Psychopharmacologia (Berl.), 13, (1968), 222-257).
Progressive doses of the product studied are administered intraperitoneally to groups of three mice until a lethal dose is reached (dose causing the death of two out of three animals in 48 hours). It follows from this Table that the compounds of the invention are not very toxic.

[3] = system: coronary occlusion in the rat; assay: Anti-ischemic and anti-hypertensive activity: coronary occlusion in the anesthetized rat (elevation of the T wave of the electrocardiogram, arterial pressure); assay type: in vivo, male albino rat of the Sprague-Dawley strain; conditions: Rattus norvegicus, iv
Text: The cardiac anti-ischemic activity of compounds manifests itself by their capacity to oppose the elevation of the T wave of the electrocardiogram, induced by a coronary occlusion in the rat. Continuous monitoring of the arterial pressure also enables to reveal the anti-hypertensive effects. The animal used for the test is a male albino rat of the Sprague-Dawley strain, weighing 220 to 280 g. On the day of the experiment, the animal is anesthetized by intraperitoneal administration of pentobarbital (60 mg/kg), then placed under endotracheal intubation. A ligature system is fitted around the descending left anterior coronary artery according to the procedure of Johnston et el. (Can. J. Physiol. Pharmacol., 61 (1983), 1340-1353). After closing the thorax, three electrodes are arranged on the body of the animal ("V4" thoracic derivation), in order to continuously record the shape of the electrocardiogram signal (in particular the T wave). Catheters are introduced into the right carotid artery and the right jugular vein to measure the arterial pressure and to administer intravenously the compound tested or the vehicle solution. Four 45 second coronary occlusions are performed, separated by episodes of reperfusion of 30, 35 and 30 minutes respectively. The compound to be studied or the vehicle are administered intravenously in bolus, 30 minutes before occlusion 3. The T electrocardiographic signal and the arterial pressure are continuously measured during the entire experiment.
The effects of the compounds according to the invention are quantified by comparing the amplitude of the elevation of the T wave at occlusions 3 and 4 (that is 30 minutes and 60 minutes after administration) with its value at occlusion 2 (that is before administration).
the second column indicates the dose of compound administered, expressed in mole/kg;
the third and the fourth columns indicate the anti-ischemic effect caused by administering the compound tested. The anti-ischemic effect represents the reduction in the elevation of the T wave caused by coronary occlusions 3 and 4, expressed in % with respect to occlusion 2, before administration of the compound (ΔT3 and ΔT4 respectively);
the fifth and sixth columns indicate the anti-hypertensive effect caused by administration of the compound tested. The anti-hypertensive effect is expressed as the maximum lowering of arterial pressure, measured a) between 5 and 30 minutes, and b) between 30 and 60 minutes after intravenous injection of the compound tested (ΔPa and ΔPb respectively). This lowering is expressed in % with respect to the value measured before injection.

[4] = 0.5 h, read-out: ΔPa (maximum lowering of arterial pressure)
[5] = 0.5 h, read-out: ΔT3 (anti-ischemic effect: change in elevation of the T wave, occlusion 3 vs occlusion 2)
[6] = 1 h, read-out: ΔPb (maximum lowering of arterial pressure)
[7] = 1 h, read-out: ΔT4 (anti-ischemic effect: change in elevation of the T wave, occlusion 4 vs occlusion 2)

Structure (SMILES)	affinity towards α-adrenergic receptors, in words (α-adrenergic receptors)	IC30 (concentration that reduces by 30% the intensity of the contraction of the muscle) [1] [nM]	IC30 [2] [nM]	Lethal dose (dose causing the death of two out of three animals in 48 hours) (male NMRI mice) [mg/kg]	change in vivo at 3 µmol/kg [3, 4] [%]	change in vivo at 3 µmol/kg [3, 5] [%]	change in vivo at 3 µmol/kg [3, 6] [%]	change in vivo at 3 µmol/kg [3, 7] [%]	change in vivo at 1 µmol/kg [3, 4] [%]	change in vivo at 1 µmol/kg [3, 5] [%]	change in vivo at 1 µmol/kg [3, 6] [%]	change in vivo at 1 µmol/kg [3, 7] [%]
CC1(c2c[nH]cn2)CCCc2ccccc21 (stereo not shown) [4-(1,2,3,4-tetrahydro-1-methyl-1-naphthalenyl)-1H-imidazole]	slight affinity	–	–	–	–	–	–	–	–	–	–	–
Cl.Oc1ccc2c(c1)CCC2c1c[nH]cn1 (stereo not shown) [Compound H, 2,3-dihydro-1-(1H-imidazol-4-yl)-1H-indene-5-ol hydrochloride]	–	36	210	236.7	-23	-48	-19	-55	–	–	–	–
COc1cccc2c1C(c1c[nH]cn1)CCC2 (stereo not shown) [Compound I, 4-(1,2,3,4-tetrahydro-8-methoxy-1-naphthalenyl)-1H-imidazole]	–	8000	1800	228.3	–	–	–	–	-26	-37	-16	-57
COc1cc2c(cc1OC)C(c1c[nH]cn1)CCC2 (stereo not shown) [Compound J, 4-(1,2,3,4-tetrahydro-6,7-dimethoxy-1-naphthalenyl)-1H-imidazole]	–	130	2900	258.3	–	–	–	–	-23	-31	-16	-29
